The target in data set [1] is T1, sulfenic acid form of C165S AhpC (Salmonella typhimurium, UniProt P0A251, C166S).
T1 construct: made in house
The data set is described as follows: Labeling of sulfenic acid-containing C165S AhpC, adducts analysed by ESI-MS. The class given is biochemical. Particulars: for Observed increase in mass of product compared with R—SH form / covalent adduct formation with the sulfenic acid form of the peroxidase: ESI-MS, 5 mM reagent; for Observed increase in mass of product compared with R—SH form: 60 min, room temperature; for covalent adduct formation with the sulfenic acid form of the peroxidase: aqueous neutral pH buffer; for labeling of the protein when 1:1 mixtures of 6 and 7 are added: ESI-MS of intact proteins. The method, then: (§1) Reactivity of new compounds toward cysteine sulfenic acids in proteins. To test for the reactivity of 6 and 7 toward protein sulfenic acids, a mutant, cysteine-dependent peroxidase enzyme was used in which the oxidized, sulfenic acid form of the cysteinyl redox center is stabilized, yet accessible (the C165S mutant of AhpC from Salmonella typhimurium, a peroxiredoxin) (3, 9, 14).
[drawing 11] washed proteins following incubations with the labeling agents (FIG. 1 and data not shown). As illustrated in FIG. 1 and summarized in Table 1, mass spectrometry results were completely consistent with the expected reactivity and products generated with the sulfenic acid-containing protein using dimedone, 1,3-cyclohexadione and our two new labeling agents (6 and 7). […] Under the conditions used, the sulfenic acid form of the protein either reacts with the reagent or is further oxidized during the workup or analysis of the sample, and is therefore not observed. In a subsequent experiment
Generation of pure, sulfenic acid-containing C165S AhpC. The C165S mutant of AhpC was expressed in bacteria and purified in the presence of 5 mM 1,4-dithiothreitol (added to all buffers) essentially as described previously (9). Purification of wild type AhpC was also carried out as previously described (10). For generation of the sulfenic acid form of C165S AhpC, thawed enzyme in 25 mM phosphate buffer at pH 7, containing 1 mM EDTA, was washed free of the dithiothreitol and transferred into fresh buffer using a PD-10 column (Amersham Biosciences), and pooled fractions were transferred to an anerobic cuvette. The protein solution (160 nmol in 0.60 mL) was made anaerobic by repeated cycles of argon and vacuum over about 30 min, then rapidly titrated with 11 mM hydrogen peroxide to give a maximal absorbance signal at ˜367 nm for the sulfenate anion as described previously (3, 4). In subsequent experiments, optimal sulfenic acid formation was observed by adding and mixing the hydrogen peroxide much more slowly (additions of about 0.05 eq and thorough mixing every ˜1 min) and quantitating the sulfenic acid formed using a freshly-prepared 2-nitro-5-thiobenzoate (TNB) solution (0.28 mL) and a 60 μL aliquot of the protein removed anaerobically from the cuvette (3, 4). Using this method, ˜73% of the protein was converted to the sulfenic acid form after addition of 1.08 eq of hydrogen peroxide. Protein was kept in the anaerobic cuvette at room temperature for several hours before conducting experiments with no loss in sulfenic acid content.
(§2) Labeling of sulfenic acid-containing C165S AhpC for spectral and mass spectrometric analysis. The pure, oxidized enzyme (32 μL, 6 nmol each) from the anaerobic cuvette was added to argon-flushed 500 μL Eppendorf tubes containing the compound of choice (either dimethylsulfoxide alone, or dimethylsulfoxide into which dimedone, 1,3-cyclohexanedione, 6 or 7 had been dissolved) to give a final concentration of 5 mM for the added reagent in final volumes of 50 μL, and the tubes were flushed again with argon before closing. Other redox forms of C165S AhpC or the wild-type enzyme were also tested for reactivity with one or more of these four compounds. Approximate 100 mM stock solutions of 6 or 7 in dimethylsulfoxide were standardized using expected extinction coefficients of 5,700 or 25,000 M^−1 cm^−1, respectively, for the esterified isatoic acid conjugate or the methoxycoumarin conjugate in methanol (11). Samples were incubated at room temperature for 60 min, then transferred to Apollo ultrafiltration devices (30K cutoff, Orbital Biosciences, Topsfield, Mass.), washed with 5.5 mL 10 mM ammonium bicarbonate and reconcentrated to about 50 μL, for a total of four washes (>10^8-fold dilution of the initial small molecule components).
Mass spectrometric and spectral analyses of adducts with the sulfenic acid-containing form of C165S AhpC. […]

Data set [2] relates to thiol, disulfide or hyperoxidized forms of AhpC (wild type or C165S). Put plainly: Control reactions with other redox forms of AhpC (ESI-MS adduct detection). The data set is classed as biochemical, Salmonella typhimurium. Particulars: for reaction with protein amine groups: reduced or oxidized wild type or reduced C165S AhpC; for reactivity of thiol, disulfide or hyperoxidized forms of AhpC (ESI-MS-detectable adduct formation): wild type or C165S.
Source text: as §1
The thiol group of the reduced protein and the oxidized, disulfide-bonded form of wild type AhpC were also unreactive toward these compounds, as confirmed by electrospray ionization mass spectrometry (ESI-MS) of the ammonium bicarbonate-washed
(§3) Specificity of fluorescent, cyclohexadione-derived regents toward sulfenic acids in proteins. The known reactivity of the nucleophilic center of dimedone is toward cysteine sulfenic acids and aldehydes (15, 16). […] To test for general cross-reactivity of these reagents with other oxidized sulfur-containing functional groups, we tested the reactivity of dimedone, as a model reagent, with a S-nitrosothiol and two sulfoxides.
as §2

The nature of data set [3]: Control reaction with amine.
The conditions of data set [4]: cited from earlier work.
The nature of data set [5]: Cross-reactivity with S-nitrosothiol (absorbance spectroscopy). The following applies: one hour, room temperature.
Source text: as §3

The nature of data set [6]: Cross-reactivity with sulfoxide (NMR, spectroscopic and chemical isolation). The following applies: aqueous solution.
Source text: as §3

A short description of data set [7]: Control reaction with aldehyde.

Structures are written as SMILES.

T1 sequence (P0A251 whole entry C166S): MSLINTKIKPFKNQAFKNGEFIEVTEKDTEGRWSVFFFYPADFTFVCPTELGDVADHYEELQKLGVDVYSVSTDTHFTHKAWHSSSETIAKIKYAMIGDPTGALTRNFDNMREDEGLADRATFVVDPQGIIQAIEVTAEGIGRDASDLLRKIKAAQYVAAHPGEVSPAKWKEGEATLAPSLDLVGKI

On to `O=C1CCCC(=O)C1` [1,3-cyclohexadione, 1,3-cyclohexanedione], for which, in data set [1], the “reactivity toward cysteine sulfenic acids relative to dimedone” value was “at least equivalent reactivity” and the “Observed increase in mass of product compared with R—SH form” value (shortened to “Observed increase in mass of product”) came out at 109.2 amu.
Turning to `CNc1ccccc1C(=O)OCCCC1CCC(=O)CC1=O` (stereo not shown) [compound 6, 3-(2,4-Dioxocyclohexyl)propyl 2-(methylamino)benzoate], in data set [1], the “covalent adduct formation with the sulfenic acid form of the peroxidase” value is recorded as “gave covalent adducts”; the “labeling of the protein when 1:1 mixtures of 6 and 7 are added” value is listed as “approximately equal labeling”; the “Observed increase in mass of product” value worked out at 300.7 amu. Also, in data set [2], the “reaction with protein amine groups” value is reported as “do not react” and the “reactivity of thiol, disulfide or hyperoxidized forms of AhpC (ESI-MS-detectable adduct formation)” value (“reactivity of thiol” for short) is reported as “lack of reactivity”.
Consider `COc1ccc2cc(NC(=O)OCCCC3CCC(=O)CC3=O)c(=O)oc2c1` (stereo not shown) [compound 7, 3-(2,4-Dioxocyclohexyl)propyl 7-methoxy-2-oxo-2H-chromen-3-ylcarbamate], for which, in data set [1], the “covalent adduct formation with the sulfenic acid form of the peroxidase” value was “gave covalent adducts”; the “labeling of the protein when 1:1 mixtures of 6 and 7 are added” value is listed as “approximately equal labeling”; the “Observed increase in mass of product” value came to 384.5 amu. For the same molecule, in data set [2], the “reaction with protein amine groups” value was “do not react” and the “reactivity of thiol” value is “lack of reactivity”.
On to `CC1(C)CC(=O)CC(=O)C1` [dimedone, 5,5-dimethyl-1,3-cyclohexanedione], for which, in data set [1], the “Observed increase in mass of product” value is 137.3 amu. Further, the “reactivity of thiol” value in data set [2] was “lack of reactivity”. For the same molecule, the reaction with benzylamine entry in data set [3] (aqueous ethanol) is listed as “no reaction occurs”; in data set [3] (organic solvent), “condenses with benzylamine to form an imine”. The “pka of active methylene group” value in data set [4] is on record as 5.15. The “reaction with S-nitrosoglutathione” value in data set [5] is “fails to react”. Besides, the “reaction with dimethyl sulfoxide” value in data set [6] was “does not react”. The “reaction with methionine sulfoxide” value in data set [6] is “does not react”. The reaction with butyraldehyde result was “reacts” in data set [7] (in the presence of piperidine, 50° C., aqueous ethanol) and “fails to react” in data set [7] (room temperature, absence of base).

The values above are taken from patent publication US8841132B2, “Method for detecting compounds containing sulfenic acid using a 1,3-cyclohexanedione-based probe” (Wake Forest University Health Sciences, priority 2004, dated 2014).
